Results: US20160015034A1, “Co-Crystals of Pyrimethanil and Selected Dithiine Tetracarboximide” (BASF SE, priority 2013, published 2016)
Values after ≈ are worked out from the molar mass of the structure shown.

What was measured:
[1] = Isothermal TGA volatility study; type: physicochemical; details: isothermal TGA at 100 C., nitrogen flow, weight loss monitored for 12 hours
Protocol: Isothermal Analysis of the Co-Crystals
TG/DTA measurement was carried out on a Seiko TG/DTA 7200 instrument. An open aluminium pan was used and the measurement was carried out under nitrogen flow with a sample weight of 5 to 10 mg. The isothermal TGA for volatility studies were performed at 100 C. and the weight loss was monitored for 12 hours.

[2] = Water solubility by slurry equilibration and HPLC; type: physicochemical; details: pH 7, aqueous buffer, thermodynamic from solid
Protocol: Water Solubility of the Co-Crystals
The determination of the amount of the actives in solution was performed on HPLC ACQUITY (Water) system, equipped with PDA—230 nm UV detector and Sample Manager auto-injector.
Waters' Enpower software was used to record the chromatograms and to calculate the chromatographic parameters. Gradient elution (Acetonitrile—0.1% H3PO4) was achieved using C18 column, 50×2.1 mm, 1.7 μm BEH. Injection volume was set 1 μL by auto injector. The analysis were performed with rate flux of 0.4 ml/min. UV detection was performed at 245 nm. Peak identities were confirmed by spectrum and retention time comparison. All the analyses were performed at room temperature. All the analyzed solutions were prepared by slurry equilibration experiments. Particularly, water suspensions (KH2PO4/NaOH buffer having pH value of 7) of dithiine, pyrimethanil and the co-crystals were slurried for 1 hour, according with the maximum value of the intrinsic dissolution profile of the pure active. After 60 minutes small samples of about 1.0 ml were recovered with a syringe and filtered through a 0.1 micrometer PVDF Millipore filtration unit. Both solid phase and liquid phase were analyzed by XRPD and HPLC, respectively.

SMILES	TGA Volatility (% weight loss per minute) [1]	solubility at 1 h [2]
Cn1c(=O)c2sc3c(=O)n(C)c(=O)c3sc2c1=O	5.45 × 10^−3 % weight loss per minute	2 µg/mL (≈ 7.08 µM)
Cc1cc(C)nc(Nc2ccccc2)n1 [pyrimethanil]	1.20 × 10^−2 % weight loss per minute	58 µg/mL (≈ 291 µM)
